This note sets out measurements from the supplement of paper PMC11368000.

Common to all, as to details: exposure time: 90 min
In assay [1] the test system is 1083 (donor line of iPSC-derived cardiomyocytes). The experiment in a line: POD (EC05) for decrease in beat frequency (negative chronotrope) vs vehicle; higher = less potent (higher point of departure). The procedure: (§1)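 Human iPSC-derived cardiomyocytes from 16 donors were exposed for 90 min at 37 °C to each PFAS at 0.1, 1, 10 and 100 µM in 0.5% DMSO, 384-well plates. Kinetic Ca2+ flux (FLIPR) and Hoechst nuclei counts were normalised to vehicle wells and fitted with a hierarchical Bayesian Hill model to give donor-specific PODs: EC05 for beat-rate increase or decrease and for decay-to-rise ratio increase (QT proxy), EC95 for peak-frequency loss (asystole), EC10 for total cell number loss. 0.03 µM is the lower bound.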

The subject of assay [2] is 1118 (donor line of iPSC-derived cardiomyocytes). The assay is described as above. The procedure:
as §1

In assay [3] the test system is 11235 (donor line of iPSC-derived cardiomyocytes). The description is as above. The protocol:
as §1

Assay [4] relates to 1309 (donor line of iPSC-derived cardiomyocytes). The assay is described as above. The protocol:
as §1

For assay [5], the system named is 1368 (donor line of iPSC-derived cardiomyocytes). The assay is described as above. The protocol:
as §1

Assay [6] relates to 1392 (donor line of iPSC-derived cardiomyocytes). Described as above. The protocol: as §1
For assay [7], the system named is 1434 (donor line of iPSC-derived cardiomyocytes). Described as above. The procedure: as §1
Assay [8] deals with 1516 (donor line of iPSC-derived cardiomyocytes). Described as above. The procedure: as §1
Assay [9] deals with 1518 (donor line of iPSC-derived cardiomyocytes). The assay is described as above. The procedure: as §1
The subject of assay [10] is 1531 (donor line of iPSC-derived cardiomyocytes). Described as above. The protocol: as §1
Assay [11] concerns 1535 (donor line of iPSC-derived cardiomyocytes). The description is as above. The procedure: as §1
Assay [12] has as its system 1565 (donor line of iPSC-derived cardiomyocytes). Described as above. The procedure:
as §1

The test system of assay [13] is 20032 (donor line of iPSC-derived cardiomyocytes). Described as above. The protocol:
as §1

In assay [14] the test system is 20084 (donor line of iPSC-derived cardiomyocytes). The assay is described as above. The procedure: as §1
Assay [15] has as its system 30145 (donor line of iPSC-derived cardiomyocytes). The assay is described as above. The protocol:
as §1

Assay [16] deals with 30171 (donor line of iPSC-derived cardiomyocytes). Described as above. The procedure: as §1
In assay [17] the test system is 30145. The experiment in a line: POD (EC05) for increase in beat frequency (positive chronotrope) vs vehicle; higher = less potent (higher point of departure). The method in brief:
(§2)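 Cardiomyocytes derived from human iPSCs of 16 donors were grown 14 days in gelatin-coated 384-well plates, loaded 2 h with a fluorescent Ca2+ dye, then exposed for 90 min at 37 °C to final concentrations of 0.1, 1, 10 and 100 µM in 0.5% DMSO. A FLIPR Tetra recorded Ca2+ flux at 8 frames/s for 100 s before and after exposure. Points of departure for each donor were derived by hierarchical Bayesian Hill fitting of vehicle-normalised beat frequency, decay-to-rise ratio or peak frequency. The thresholds applied were a 5% change, or a 95% loss for peak frequency.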

Assay [18] has as its system 1516. As to the kind of experiment: POD (EC05) for increase in Ca2+ transient decay-to-rise ratio (QT prolongation) vs vehicle; higher = less potent (higher point of departure). A digest of the protocol: as §2
In assay [19] the test system is 1518. The description is as above. The method in brief:
as §2

The test system of assay [20] is 1531. The assay is described as above. A digest of the protocol:
as §2

In the case of `OCCC(F)(F)C(F)(F)C(F)(F)C(F)(F)F` [4:2 Fluorotelomer alcohol], the POD vs vehicle in assay [1] was > 100 µM; in assay [2], 22.9 µM; in assay [3], > 100 µM; in assay [4], > 100 µM; in [5], > 100 µM; in [6], > 100 µM. Moreover, the POD vs vehicle in assay [7], in [8], in [9], in assay [10], in [11] and in [12] was > 100 µM throughout. The POD vs vehicle in assay [13], in [14], in assay [15] and in assay [16] was > 100 µM throughout.

As for `OCC(F)(F)C(F)(F)C(F)(F)C(F)(F)C(F)(F)C(F)(F)F` [6:1 Fluorotelomer alcohol], the POD vs vehicle in [1] is 24.6 µM; in assay [2], 0.554 µM; in assay [3], 21.5 µM; in [4], > 100 µM; in assay [5], 74.9 µM; in [6] it was > 100 µM. In addition, the POD vs vehicle in assay [7] is 21.9 µM; in [8], > 100 µM; in [9], > 100 µM; in [10], > 100 µM; in assay [11], > 100 µM; in assay [12], > 100 µM. Besides, the POD vs vehicle in [13] is > 100 µM; in assay [14], > 100 µM; in assay [15], > 100 µM; in assay [16] it was 24.3 µM; in assay [17], > 100 µM; in [18] it was > 100 µM.

Regarding `O=C([O-])C(F)(F)C(F)(F)C(F)(F)C(F)(F)C(F)(F)C(F)(F)C(F)(F)F.[NH4+]` [Ammonium_perfluorooctanoate], the POD vs vehicle in assay [1] was > 100 µM; in assay [2], 11 µM; in assay [3], 4.51 µM; in assay [4], > 100 µM; in [5], > 100 µM; in assay [6] it was > 100 µM. The POD vs vehicle in [7] is 46.1 µM; in assay [8], 58.4 µM; in assay [9] it was 87.3 µM; in assay [10], 18.9 µM; in assay [11] it was 43.5 µM; in assay [12], > 100 µM. Also, the POD vs vehicle in [13] is 79.9 µM; in assay [14] it was > 100 µM; in assay [15] it was > 100 µM; in assay [16], 7.16 µM; in assay [18] it was > 100 µM.

With `OCC(F)(F)OC(F)(F)C(F)(F)OC(F)(F)C(F)(F)OC(F)(F)F` [Fluorinated_triethylene_glycol_monomethyl_ether], the POD vs vehicle in [1] was > 100 µM; in assay [2], 2.52 µM; in assay [3], > 100 µM; in assay [4] it was > 100 µM; in assay [5] it was > 100 µM; in assay [6], > 100 µM. Further, the POD vs vehicle in assay [7] was 25.3 µM; in [8], > 100 µM; in assay [9], > 100 µM; in [10], > 100 µM; in assay [11], > 100 µM; in [12] it was > 100 µM. For the same compound, the POD vs vehicle in assay [13], in assay [14], in assay [15], in assay [16], in [18] and in [19] was > 100 µM in each case.

With `OCC(F)(F)C(F)(F)C(F)(F)F` [Heptafluorobutanol], the POD vs vehicle in assay [1], in [2], in [3], in assay [4], in assay [5] and in assay [6] was > 100 µM throughout. Further, the POD vs vehicle in [7], in assay [8], in [9], in assay [10], in assay [11] and in assay [12] was > 100 µM in each case. For the same compound, the POD vs vehicle in [13], in [14], in assay [15], in [16] and in [20] was > 100 µM in each case.

In the case of `NC(=O)C(F)(F)C(F)(F)C(F)(F)F` [Heptafluorobutyramide], the POD vs vehicle in assay [1], in [2], in [3], in [4], in assay [5] and in [6] was > 100 µM in each case. Moreover, the POD vs vehicle in [7], in [8], in [9], in assay [10], in assay [11] and in assay [12] was > 100 µM throughout. Also, the POD vs vehicle in assay [13], in assay [14], in [15] and in assay [16] was > 100 µM in each case.
